Experimental data published in the supplement of paper PMC10307832.

Assays:
Test in all cases: relative viability (nuclei count vs DMSO), 5 days (fraction); higher = more cells survive
Imatinib + Palbociclib = compound: Cc1ccc(NC(=O)c2ccc(CN3CCN(C)CC3)cc2)cc1Nc1nccc(-c2cccnc2)n1 [Imatinib] + CC(=O)c1c(C)c2cnc(Nc3ccc(N4CCNCC4)cn3)nc2n(C2CCCC2)c1=O [Palbociclib] (partner 0.5 µM)
Outline: (§1)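 Relative viability was taken as the ratio of nuclei in treated wells to nuclei in vehicle wells. Lung cancer cell lines in 1536-well plates received compounds by pin tool one day after seeding, either one drug alone or a fixed anchor-drug dose plus five library-drug doses (not always all listed) in √10 steps. Nuclei were counted on 4× images after 5 days of treatment, and values are medians of duplicate plates.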

Imatinib + Luminespib = compound: Cc1ccc(NC(=O)c2ccc(CN3CCN(C)CC3)cc2)cc1Nc1nccc(-c2cccnc2)n1 [Imatinib] + CCNC(=O)c1noc(-c2cc(C(C)C)c(O)cc2O)c1-c1ccc(CN2CCOCC2)cc1 [Luminespib] (partner 0.01 µM)
Outline: as §1

Imatinib + OSI-027 = compound: Cc1ccc(NC(=O)c2ccc(CN3CCN(C)CC3)cc2)cc1Nc1nccc(-c2cccnc2)n1 [Imatinib] + COc1cccc2cc(-c3nc([C@H]4CC[C@H](C(=O)O)CC4)n4ncnc(N)c34)[nH]c12 [OSI-027] (partner 0.5 µM)
Outline: as §1

Imatinib = compound: Cc1ccc(NC(=O)c2ccc(CN3CCN(C)CC3)cc2)cc1Nc1nccc(-c2cccnc2)n1 [Imatinib]
Outline: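 Hoechst staining, done together with fixation and permeabilisation, marked nuclei for 4× imaging and MetaXpress counting. This followed 5 days without medium change after lung cancer cell lines, kept overnight at 37 °C in 1536-well plates, were pinned with five library-drug doses (not always all listed) spaced by √10 on vehicle-anchored plates. Viability is the ratio of treated-well to vehicle-well nuclei, expressed as a median across plates. Plates passed only at control CV below 25% with at least one doubling.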

201T was tested, and the relative viability (Imatinib + Palbociclib; first compound 0.02 µM) was 0.337, the relative viability (Imatinib + Palbociclib; first compound 0.06325 µM) was 0.336 and the relative viability (Imatinib + Palbociclib; first compound 0.2 µM) was 0.35. The relative viability (Imatinib + Palbociclib; first compound 0.6325 µM) was 0.329, the relative viability (Imatinib + Palbociclib; first compound 2 µM) was 0.361 and the relative viability (Imatinib + Luminespib; first compound 0.02 µM) was 1.09. It also gave a relative viability (Imatinib + Luminespib; first compound 0.2 µM) of 1.11, a relative viability (Imatinib + Luminespib; first compound 0.6325 µM) of 0.96 and a relative viability (Imatinib + Luminespib; first compound 2 µM) of 1.03. The relative viability (Imatinib + OSI-027; first compound 0.02 µM) was 0.865, the relative viability (Imatinib + OSI-027; first compound 0.06325 µM) was 0.798 and the relative viability (Imatinib + OSI-027; first compound 0.2 µM) was 0.762. For the same cell line, the relative viability (Imatinib + OSI-027; first compound 0.6325 µM) was 0.761, the relative viability (Imatinib; 0.02 µM) was 1.01 and the relative viability (Imatinib; 0.2 µM) was 1.02. The relative viability (Imatinib; 0.6325 µM) was 0.997 and the relative viability (Imatinib; 2 µM) was 0.965.

For A-427, the relative viability (Imatinib + Palbociclib; first compound 0.02 µM) was 0.533, the relative viability (Imatinib + Palbociclib; first compound 0.06325 µM) was 0.555 and the relative viability (Imatinib + Palbociclib; first compound 0.2 µM) was 0.51. It also gave a relative viability (Imatinib + Palbociclib; first compound 0.6325 µM) of 0.514, a relative viability (Imatinib + Palbociclib; first compound 2 µM) of 0.543 and a relative viability (Imatinib + Luminespib; first compound 0.02 µM) of 1.06. For the same cell line, the relative viability (Imatinib + Luminespib; first compound 0.2 µM) was 0.868, the relative viability (Imatinib + Luminespib; first compound 0.6325 µM) was 0.903 and the relative viability (Imatinib + Luminespib; first compound 2 µM) was 0.9. The relative viability (Imatinib + OSI-027; first compound 0.02 µM) was 0.503, the relative viability (Imatinib + OSI-027; first compound 0.2 µM) was 0.5 and the relative viability (Imatinib + OSI-027; first compound 0.6325 µM) was 0.447. It also gave a relative viability (Imatinib + OSI-027; first compound 2 µM) of 0.47, a relative viability (Imatinib; 0.02 µM) of 1.04 and a relative viability (Imatinib; 0.2 µM) of 0.989. For the same cell line, the relative viability (Imatinib; 0.6325 µM) was 0.974 and the relative viability (Imatinib; 2 µM) was 0.969.

Cell Line ABC-1 has a relative viability (Imatinib + Palbociclib; first compound 0.02 µM) of 0.749, a relative viability (Imatinib + Palbociclib; first compound 0.2 µM) of 0.741 and a relative viability (Imatinib + Palbociclib; first compound 0.6325 µM) of 0.872. For the same cell line, the relative viability (Imatinib + Palbociclib; first compound 2 µM) was 0.664, the relative viability (Imatinib + Luminespib; first compound 0.02 µM) was 0.911 and the relative viability (Imatinib + Luminespib; first compound 0.2 µM) was 0.445. The relative viability (Imatinib + Luminespib; first compound 0.6325 µM) was 0.326, the relative viability (Imatinib + OSI-027; first compound 0.02 µM) was 0.516 and the relative viability (Imatinib + OSI-027; first compound 0.2 µM) was 0.504. The relative viability (Imatinib + OSI-027; first compound 0.6325 µM) was 0.521, the relative viability (Imatinib + OSI-027; first compound 2 µM) was 0.564 and the relative viability (Imatinib; 0.02 µM) was 1.11. The relative viability (Imatinib; 0.2 µM) was 1.07, the relative viability (Imatinib; 0.6325 µM) was 0.888 and the relative viability (Imatinib; 2 µM) was 0.634.

Work on BEN yielded a relative viability (Imatinib + Palbociclib; first compound 0.02 µM) of 0.469, a relative viability (Imatinib + Palbociclib; first compound 0.06325 µM) of 0.541 and a relative viability (Imatinib + Palbociclib; first compound 0.2 µM) of 0.488. For the same cell line, the relative viability (Imatinib + Palbociclib; first compound 0.6325 µM) was 0.458, the relative viability (Imatinib + Palbociclib; first compound 2 µM) was 0.467 and the relative viability (Imatinib + Luminespib; first compound 0.02 µM) was 0.402. It also gave a relative viability (Imatinib + Luminespib; first compound 0.2 µM) of 0.29, a relative viability (Imatinib + Luminespib; first compound 0.6325 µM) of 0.355 and a relative viability (Imatinib + Luminespib; first compound 2 µM) of 0.156. For the same cell line, the relative viability (Imatinib + OSI-027; first compound 0.02 µM) was 0.285, the relative viability (Imatinib + OSI-027; first compound 0.2 µM) was 0.262 and the relative viability (Imatinib + OSI-027; first compound 0.6325 µM) was 0.287. For the same cell line, the relative viability (Imatinib + OSI-027; first compound 2 µM) was 0.302, the relative viability (Imatinib; 0.02 µM) was 1.09 and the relative viability (Imatinib; 0.06325 µM) was 0.82. For the same cell line, the relative viability (Imatinib; 0.2 µM) was 0.897, the relative viability (Imatinib; 0.6325 µM) was 0.871 and the relative viability (Imatinib; 2 µM) was 0.912.

For CAL-12T, the relative viability (Imatinib + Palbociclib; first compound 0.02 µM) was 0.374, the relative viability (Imatinib + Palbociclib; first compound 0.06325 µM) was 0.412 and the relative viability (Imatinib + Palbociclib; first compound 0.2 µM) was 0.535. The relative viability (Imatinib + Palbociclib; first compound 0.6325 µM) was 0.496, the relative viability (Imatinib + Palbociclib; first compound 2 µM) was 0.444 and the relative viability (Imatinib + Luminespib; first compound 0.02 µM) was 0.365. It also gave a relative viability (Imatinib + Luminespib; first compound 0.2 µM) of 0.363, a relative viability (Imatinib + Luminespib; first compound 0.6325 µM) of 0.397 and a relative viability (Imatinib + Luminespib; first compound 2 µM) of 0.198. The relative viability (Imatinib + OSI-027; first compound 0.02 µM) was 0.714, the relative viability (Imatinib + OSI-027; first compound 0.2 µM) was 0.605 and the relative viability (Imatinib + OSI-027; first compound 0.6325 µM) was 0.702. For the same cell line, the relative viability (Imatinib + OSI-027; first compound 2 µM) was 0.471, the relative viability (Imatinib; 0.02 µM) was 1.04 and the relative viability (Imatinib; 0.06325 µM) was 0.865. It also gave a relative viability (Imatinib; 0.2 µM) of 1.13, a relative viability (Imatinib; 0.6325 µM) of 1.05 and a relative viability (Imatinib; 2 µM) of 0.943.

For COR-L23, the relative viability (Imatinib + Palbociclib; first compound 0.02 µM) was 0.329, the relative viability (Imatinib + Palbociclib; first compound 0.06325 µM) was 0.226 and the relative viability (Imatinib + Palbociclib; first compound 0.2 µM) was 0.303. It also gave a relative viability (Imatinib + Palbociclib; first compound 0.6325 µM) of 0.31, a relative viability (Imatinib + Palbociclib; first compound 2 µM) of 0.297 and a relative viability (Imatinib + Luminespib; first compound 0.02 µM) of 0.806. The relative viability (Imatinib + Luminespib; first compound 0.06325 µM) was 0.709, the relative viability (Imatinib + Luminespib; first compound 0.2 µM) was 0.79 and the relative viability (Imatinib + Luminespib; first compound 0.6325 µM) was 0.802. It also gave a relative viability (Imatinib + Luminespib; first compound 2 µM) of 0.654, a relative viability (Imatinib + OSI-027; first compound 0.02 µM) of 0.869 and a relative viability (Imatinib + OSI-027; first compound 0.06325 µM) of 0.831. It also gave a relative viability (Imatinib + OSI-027; first compound 0.2 µM) of 0.853, a relative viability (Imatinib + OSI-027; first compound 0.6325 µM) of 0.824 and a relative viability (Imatinib + OSI-027; first compound 2 µM) of 0.64. It also gave a relative viability (Imatinib; 0.02 µM) of 1.08, a relative viability (Imatinib; 0.06325 µM) of 0.916 and a relative viability (Imatinib; 0.2 µM) of 1.14. It also gave a relative viability (Imatinib; 0.6325 µM) of 1.02 and a relative viability (Imatinib; 2 µM) of 1.1.

For COR-L 105, the relative viability (Imatinib + Palbociclib; first compound 0.02 µM) was 0.425, the relative viability (Imatinib + Palbociclib; first compound 0.06325 µM) was 0.367 and the relative viability (Imatinib + Palbociclib; first compound 0.2 µM) was 0.454. For the same cell line, the relative viability (Imatinib + Palbociclib; first compound 0.6325 µM) was 0.395, the relative viability (Imatinib + Palbociclib; first compound 2 µM) was 0.428 and the relative viability (Imatinib + Luminespib; first compound 0.02 µM) was 0.696. It also gave a relative viability (Imatinib + Luminespib; first compound 0.2 µM) of 0.844, a relative viability (Imatinib + Luminespib; first compound 0.6325 µM) of 0.632 and a relative viability (Imatinib + Luminespib; first compound 2 µM) of 0.732. The relative viability (Imatinib + OSI-027; first compound 0.02 µM) was 0.771, the relative viability (Imatinib + OSI-027; first compound 0.06325 µM) was 0.739 and the relative viability (Imatinib + OSI-027; first compound 0.2 µM) was 0.65. For the same cell line, the relative viability (Imatinib + OSI-027; first compound 0.6325 µM) was 0.653, the relative viability (Imatinib + OSI-027; first compound 2 µM) was 0.685 and the relative viability (Imatinib; 0.02 µM) was 1.06. The relative viability (Imatinib; 0.06325 µM) was 0.979, the relative viability (Imatinib; 0.2 µM) was 1 and the relative viability (Imatinib; 0.6325 µM) was 0.891. The relative viability (Imatinib; 2 µM) was 0.9.

For ChaGo-K-1, the relative viability (Imatinib + Palbociclib; first compound 0.02 µM) was 0.988, the relative viability (Imatinib + Palbociclib; first compound 0.2 µM) was 0.982 and the relative viability (Imatinib + Palbociclib; first compound 0.6325 µM) was 0.871. The relative viability (Imatinib + Palbociclib; first compound 2 µM) was 0.879, the relative viability (Imatinib + Luminespib; first compound 0.02 µM) was 0.585 and the relative viability (Imatinib + Luminespib; first compound 0.06325 µM) was 0.592. It also gave a relative viability (Imatinib + Luminespib; first compound 0.2 µM) of 0.603, a relative viability (Imatinib + Luminespib; first compound 0.6325 µM) of 0.624 and a relative viability (Imatinib + Luminespib; first compound 2 µM) of 0.56. The relative viability (Imatinib + OSI-027; first compound 0.02 µM) was 0.444, the relative viability (Imatinib + OSI-027; first compound 0.06325 µM) was 0.511 and the relative viability (Imatinib + OSI-027; first compound 0.2 µM) was 0.538. It also gave a relative viability (Imatinib + OSI-027; first compound 0.6325 µM) of 0.56, a relative viability (Imatinib + OSI-027; first compound 2 µM) of 0.491 and a relative viability (Imatinib; 0.02 µM) of 1.02. The relative viability (Imatinib; 0.06325 µM) was 0.794, the relative viability (Imatinib; 0.2 µM) was 1.01 and the relative viability (Imatinib; 2 µM) was 0.949.

EBC-1 gave a relative viability (Imatinib; 0.02 µM) of 1.13, a relative viability (Imatinib; 0.06325 µM) of 0.878 and a relative viability (Imatinib; 0.2 µM) of 1.17. It also gave a relative viability (Imatinib; 0.6325 µM) of 1.02.
